Data taken from BindingDB's records for patent US20230348424 (Schrödinger, 2023).

Tests used:
[1] = target: T1, Son of sevenless homolog 1 [564-1049] (Human, UniProt Q07889); test: Surface Plasmon Resonance (SPR) SOS1 Binding AssaySurface Plasmon Resonance (SPR) SOS1 Binding Assay
T1 construct: 564-1049
T1 sequence (Q07889 whole entry): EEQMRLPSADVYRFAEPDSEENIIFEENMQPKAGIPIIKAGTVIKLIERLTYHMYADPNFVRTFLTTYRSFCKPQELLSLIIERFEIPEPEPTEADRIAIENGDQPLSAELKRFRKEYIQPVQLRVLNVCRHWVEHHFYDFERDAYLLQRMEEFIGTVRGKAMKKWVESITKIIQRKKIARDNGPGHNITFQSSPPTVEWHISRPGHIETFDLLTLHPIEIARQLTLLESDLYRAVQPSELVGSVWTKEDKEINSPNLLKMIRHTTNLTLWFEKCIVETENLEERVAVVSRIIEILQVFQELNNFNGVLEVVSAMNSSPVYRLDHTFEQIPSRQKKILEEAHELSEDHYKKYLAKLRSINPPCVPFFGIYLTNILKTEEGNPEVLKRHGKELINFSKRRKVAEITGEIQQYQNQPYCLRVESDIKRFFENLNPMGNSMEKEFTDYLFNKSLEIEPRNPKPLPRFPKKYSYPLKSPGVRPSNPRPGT
Experimental: Binding to SOS1 was measured using a SPR assay with purified recombinant human SOS1 substrate (res. 564-1049 with N-terminal Avi tag; purified and biotinylated based on Hillig, et al., Proc Natl Acad Sci USA (2019); 116(7):2551-2560). SPR measurements were performed on a Biacore 8K SPR instrument (GE Healthcare, Sweden). Assays were performed at 25° C. using Series S SA sensor chips pre-coated with streptavidin (GE Healthcare, Cat. BR100531). Biotinylated SOS1 diluted in sample buffer (20 mM Tris HCI, 150 mM NaCl, 1 mM DTT, 0.05% TWEEN 20, 1 mM MgCh, pH 8.0) was captured to one flow cell of the chip to about 3,000 resonance units (RU) using sample buffer supplemented with 5% DMSO as a running buffer. Serial dilutions of the assayed compounds in the running buffer at 100, 50 or 0.5 µM were injected for 60 s at a flow rate of 30 µL/min and association phases were recorded. Dissociation of the samples was monitored for 600 s. Data processing was performed using Biacore Insight Software (Biacore, GE Healthcare). Sensorgrams recorded on a SA flow cell without captured protein were subtracted from sensorgrams recorded on the SOS1 surface. Blank injections of running buffer were used for double referencing and solvent correction was applied to all sample sensorgrams to correct for buffer mismatches. KDS were estimated using a kinetic or steady state, where applicable, fitting model describing a reversible equilibrium with 1:1 binding between SOS1 and the compound.

[2] = target: T2, Son of sevenless homolog 1 [564-1049]/GTPase KRas [G12C] (UniProt Q07889); test: SOS1 KRas(G12C) FRET Assay
T2 construct: 564-1049
T2 sequence (P01116 whole entry G12C, one chain of several): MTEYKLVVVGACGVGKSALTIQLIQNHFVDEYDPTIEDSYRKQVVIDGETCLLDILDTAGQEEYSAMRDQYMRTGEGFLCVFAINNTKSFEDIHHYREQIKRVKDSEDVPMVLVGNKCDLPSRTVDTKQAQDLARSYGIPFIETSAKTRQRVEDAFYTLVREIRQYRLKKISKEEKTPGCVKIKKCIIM
Experimental: A 2x KRAS working solution was prepared in an assay buffer containing 5 nM GST-KRAS G12C and 2 nM anti-GST-Eu(K) (Cisbio, Cat. 61GSTKLA) and pre-incubated for 15 minutes at 25° C. […] The final DMSO concentration is 0.5%. […] FRET signal was converted to percentage of protein-protein interaction using the following equation:%Inhibition=100%-C-N/P-N*100%C: signal with compound treatmentP: signal for positive control (DMSO)N: signal for negative control (no SOS1 added).

SMILES	Kd [1] [µM]	IC50 [2] [µM]
Cc1c([C@@H](C)NC(=O)c2cn(C3CCOCC3)c(=O)cc2NC2CCN(C)CC2)cccc1C(F)(F)F [US20230348424, Example 1]	0.006	–
C[C@@H](NC(=O)c1cn(C23CC(C2)C3)c(=O)cc1N[C@H]1[C@@H]2CNC[C@@H]21)c1cccc(C(F)F)c1F [US20230348424, Example 89]	0.012	–
C[C@@H](NC(=O)c1cn(C2(C(F)(F)F)CC2)c(=O)cc1N[C@H]1[C@@H]2CN(C)C[C@@H]21)c1cccc(C(F)(F)F)c1F [US20230348424, Example 120]	0.024	0.0357
